Test results published in paper PMC3503449 (Breast cancer research and treatment, 2008).

Biological target: estrogen receptor α (ERα) (Homo sapiens, UniProt P03372)
Assay: ERE-luciferase reporter, antagonism of EXE-induced ER activity
Format: cell-based

Chain of estrogen receptor α (ERα) (P03372 whole entry): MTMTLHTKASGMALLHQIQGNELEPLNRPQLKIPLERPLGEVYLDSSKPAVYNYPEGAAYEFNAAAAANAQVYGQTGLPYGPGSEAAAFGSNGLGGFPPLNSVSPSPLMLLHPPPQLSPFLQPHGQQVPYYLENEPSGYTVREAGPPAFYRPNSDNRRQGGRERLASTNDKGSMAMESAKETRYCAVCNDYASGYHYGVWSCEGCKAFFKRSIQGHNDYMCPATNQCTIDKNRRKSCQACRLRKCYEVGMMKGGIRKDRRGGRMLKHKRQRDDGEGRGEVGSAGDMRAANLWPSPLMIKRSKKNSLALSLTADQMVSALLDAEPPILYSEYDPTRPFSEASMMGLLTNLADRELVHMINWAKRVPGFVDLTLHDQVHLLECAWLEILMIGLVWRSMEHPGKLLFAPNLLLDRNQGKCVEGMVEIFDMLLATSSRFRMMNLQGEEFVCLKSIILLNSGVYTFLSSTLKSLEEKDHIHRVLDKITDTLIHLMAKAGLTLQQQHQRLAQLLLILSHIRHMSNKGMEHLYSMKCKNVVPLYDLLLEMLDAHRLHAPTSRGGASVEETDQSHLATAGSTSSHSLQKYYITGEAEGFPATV

`C[C@]12CC[C@@H]3c4ccc(O)cc4C[C@@H](CCCCCCCCC[S+]([O-])CCCC(F)(F)C(F)(F)F)[C@H]3[C@@H]1CC[C@@H]2O` (stereo partly shown) [ICI, ICI 182780] was tested, and the “ERE-luciferase reporter, antagonism of EXE-induced ER activity” value was “ER activity was inhibited using the pure ER antagonist ICI”.
